Assay results taken from patent US7326699B2, “4-Amino-5-phenyl-7-cyclobutyl-pyrrolo(2,3-d)pyrimidine derivatives” (Novartis AG, priority 2001, dated 2008).

Target: T1, human IGF-IR (Homo sapiens, UniProt P08069)
T1 construct: complete human IGF-IR cDNA: GenBank Acc; No. NM_000875; expressed in transfected cells; host or cells: NIH-3T3 mouse fibroblasts
Assay: cellular "Capture ELISA": IGF-I induced IGF-IR autophosphorylation
Assay type: cell-based
Conditions: NIH-3T3 mouse fibroblasts transfected with human IGF-IR cDNA, 90 min compound, 10 ng/ml IGF-I for 10 min
Method: In this assay the activity of the compounds of the invention against Insulin-like growth factor I (IGF-I) induced autophosphorylation of the IGF-IGF-IR is determined. The assay is conducted as follows:
The cells which overexpress human IGF-IGF-IR are cultured in Dulbecco's minimal essential (DMEM) medium, containing 10% Fetal Calf Serum (FCS). […] On day 3 the medium is discarded and the cells are incubated for 24 h in minimal medium (DMEM, containing 0.5% FCS). […] The cells are incubated for 90 min in the presence of a compound of formula I. Thereafter the cells are stimulated with 50 μl IGF-I (final concentration of IGF-I in the well=10 ng/ml; IGF-I is obtained from Sigma; Product Code: I3769) and incubated for 10 min at 37° C.
The medium is discarded and the cells are washed twice with PBS/O (=Phosphate-Buffered Saline without CaCl2) and lysed for 15 min on ice with 50 μl/well RIPA-buffer [50 mM Tris.HCl, pH=7.2, 120 mM NaCl, 1 mM EDTA, 6 mM EGTA, 1% NP-40, 20 mM NaF, 1 mM benzamidine, 15 mM sodium pyrophosphate, 1 mM Phenyl methyl sulphonyl fluoride (PMSF) and 0.5 mM Na3VO4] and shaken for 10 min using a 96-well plate shaker (=cellular extracts).
The plates are washed twice with 0.05% (v/v) Tween-20 in Phosphate-Buffered Saline (PBS) and once with nanopure H2O. […] After blocking, the plates are washed once with nanopure H2O.
After incubating the extracts and the secondary antibody for 2 h at 4° C., the extracts are discarded, the plates are washed twice with 0.05% (v/v) Tween-20 in PBS and once with nanopure water.
90 μl/well AP substrate (CDP-Star; obtained from Tropix; Cat. No.: MS100RY) are then added and the plates are incubated for 45 min at RT in the dark, followed by measuring AP activity in a Packard Top Count Microplate Scintillation Counter. The IC50 values for the compounds of formula I are calculated via linear regression analysis using the GraphPad In-stat program (GraphPad Software, USA).
Test for activity against IGF-I induced IGF-IR autophosphorylation using the cellular “Capture ELISA” test
The cellular “Capture ELISA” test is carried out as described above.

T1 sequence (P08069 31-1367): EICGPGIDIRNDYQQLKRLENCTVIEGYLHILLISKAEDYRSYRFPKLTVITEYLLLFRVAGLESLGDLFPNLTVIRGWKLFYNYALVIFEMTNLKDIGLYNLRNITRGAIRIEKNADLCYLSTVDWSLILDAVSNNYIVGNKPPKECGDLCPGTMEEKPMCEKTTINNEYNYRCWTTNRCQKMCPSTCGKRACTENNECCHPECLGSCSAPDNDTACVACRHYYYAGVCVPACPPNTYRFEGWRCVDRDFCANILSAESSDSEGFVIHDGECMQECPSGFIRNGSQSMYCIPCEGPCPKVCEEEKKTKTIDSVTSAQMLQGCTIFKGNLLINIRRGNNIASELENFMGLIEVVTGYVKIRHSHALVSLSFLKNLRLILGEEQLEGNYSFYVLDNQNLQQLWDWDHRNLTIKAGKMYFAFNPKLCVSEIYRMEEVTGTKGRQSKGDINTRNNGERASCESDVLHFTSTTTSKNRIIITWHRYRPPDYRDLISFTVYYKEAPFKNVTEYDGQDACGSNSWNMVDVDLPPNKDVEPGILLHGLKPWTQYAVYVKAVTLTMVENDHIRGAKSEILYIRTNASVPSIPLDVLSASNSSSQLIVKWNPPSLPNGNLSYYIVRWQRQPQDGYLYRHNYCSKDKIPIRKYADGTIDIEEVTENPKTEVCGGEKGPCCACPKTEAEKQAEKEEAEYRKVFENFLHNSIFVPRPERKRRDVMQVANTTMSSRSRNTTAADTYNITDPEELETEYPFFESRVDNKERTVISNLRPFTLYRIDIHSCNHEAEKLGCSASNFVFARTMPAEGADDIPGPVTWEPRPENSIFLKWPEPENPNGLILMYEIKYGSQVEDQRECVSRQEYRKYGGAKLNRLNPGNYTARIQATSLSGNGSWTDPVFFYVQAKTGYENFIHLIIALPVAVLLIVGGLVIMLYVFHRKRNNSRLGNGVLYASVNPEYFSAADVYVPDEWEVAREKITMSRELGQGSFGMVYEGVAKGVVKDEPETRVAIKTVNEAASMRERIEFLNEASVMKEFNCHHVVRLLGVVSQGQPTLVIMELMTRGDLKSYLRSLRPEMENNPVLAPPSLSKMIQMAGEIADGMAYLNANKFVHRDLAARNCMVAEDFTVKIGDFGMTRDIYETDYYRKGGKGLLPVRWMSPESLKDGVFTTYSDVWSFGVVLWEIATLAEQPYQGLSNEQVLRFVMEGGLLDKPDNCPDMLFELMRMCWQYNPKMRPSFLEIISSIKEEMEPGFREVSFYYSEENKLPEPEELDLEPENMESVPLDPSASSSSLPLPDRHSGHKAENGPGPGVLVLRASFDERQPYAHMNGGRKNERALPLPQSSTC

Row | SMILES | IC50
1 | NC[C@H]1C[C@@H](n2cc(-c3cccc(OCc4ccccc4)c3)c3c(N)ncnc32)C1 [Example 1, cis-7-(3-aminomethyl-cyclobutyl)-5-(3-benzyloxy-phenyl)-7H-pyrrolo[2,3-d]pyrimidin-4-ylamine] | 0.062 µM
2 | NC[C@H]1C[C@H](n2cc(-c3cccc(OCc4ccccc4)c3)c3c(N)ncnc32)C1 [Example 2, trans-7-(3-aminomethyl-cyclobutyl)-5-(3-benzyloxy-phenyl)-7H-pyrrolo[2,3-d]pyrimidin-4-ylamine] | 0.03 µM
3 | CNC[C@H]1C[C@@H](n2cc(-c3cccc(OCc4ccccc4)c3)c3c(N)ncnc32)C1 [Example 9, cis-5-(3-Benzyloxy-phenyl)-7-(3-methylaminomethyl-cyclobutyl)-7H-pyrrolo[2,3-d]pyrimidin-4-ylamine] | 0.042 µM
4 | CNC[C@H]1C[C@H](n2cc(-c3cccc(OCc4ccccc4)c3)c3c(N)ncnc32)C1 [Example 10, trans-5-(3-Benzyloxy-phenyl)-7-(3-methylaminomethyl-cyclobutyl)-7H-pyrrolo[2,3-d]pyrimidin-4-ylamine] | 0.07 µM
5 | CS(=O)(=O)NC[C@H]1C[C@@H](n2cc(-c3cccc(OCc4ccccc4)c3)c3c(N)ncnc32)C1 [Example 14, cis-N-{3-[4-Amino-5-(3-benzyloxy-phenyl)-pyrrolo[2,3-d]pyrimidin-7-yl]-cyclobutylmethyl}-methanesulfonamide] | 0.03 µM
6 | COC(=O)NC[C@H]1C[C@H](n2cc(-c3cccc(OCc4ccccc4)c3)c3c(N)ncnc32)C1 [Example 22, trans-{3-[4-amino-5-(3-benzyloxy-phenyl)-pyrrolo[2,3-d]pyrimidin-7-yl]-cyclobutylmethyl}-carbamic acid methyl ester] | 0.08 µM
7 | COC(=O)NC[C@H]1C[C@@H](n2cc(-c3cccc(OCc4ccccc4)c3)c3c(N)ncnc32)C1 [Example 23, cis-{3-[4-Amino-5-(3-benzyloxy-phenyl)-pyrrolo[2,3-d]pyrimidin-7-yl]-cyclobutylmethyl}-carbamic acid methyl ester] | 0.031 µM
8 | COCCOC(=O)NC[C@H]1C[C@H](n2cc(-c3cccc(OCc4ccccc4)c3)c3c(N)ncnc32)C1 [Example 24, trans-{3-[4-Amino-5-(3-benzyloxy-phenyl)-pyrrolo[2,3-d]pyrimidin-7-yl]-cyclobutylmethyl}-carbamic acid 2-methoxy-ethyl ester] | 0.095 µM
9 | CCNC(=O)NC[C@H]1C[C@H](n2cc(-c3cccc(OCc4ccccc4)c3)c3c(N)ncnc32)C1 [Example 26, trans-1-{3-[4-amino-5-(3-benzyloxy-phenyl)-pyrrolo[2,3-d]pyrimidin-7-yl]-cyclobutylmethyl}-3-ethyl-urea] | 0.055 µM
10 | CCNC(=O)NC[C@H]1C[C@@H](n2cc(-c3cccc(OCc4ccccc4)c3)c3c(N)ncnc32)C1 [Example 27, cis-{3-[4-Amino-5-(3-benzyloxy-phenyl)pyrrolo[2,3-d]pyrimidin-7-yl]-cyclobutylmethyl}-3-ethyl-urea] | 0.05 µM
11 | CCCNC(=O)NC[C@H]1C[C@H](n2cc(-c3cccc(OCc4ccccc4)c3)c3c(N)ncnc32)C1 [Example 28, trans-1-{3-[4-Amino-5-(3-benzyloxy-phenyl)-pyrrolo[2,3-d]pyrimidin-7-yl]-cyclobutylmethyl}-3-propyl-urea] | 0.05 µM
12 | CC(C)NC(=O)NC[C@H]1C[C@@H](n2cc(-c3cccc(OCc4ccccc4)c3)c3c(N)ncnc32)C1 [Example 31, cis-1-{3-[4-Amino-5-(3-benzyloxy-phenyl)-pyrrolo[2,3-d]pyrimidin-7-yl]-cyclobutylmethyl}-3-isopropyl-urea] | 0.03 µM
13 | NC(=O)NC[C@H]1C[C@@H](n2cc(-c3cccc(OCc4ccccc4)c3)c3c(N)ncnc32)C1 [Example 49, cis-{3-[4-Amino-5-(3-benzyloxy-phenyl)-pyrrolo[2,3-d]pyrimidin-7-yl]-cyclobutylmethyl}-urea] | 0.04 µM
14 | Nc1ncnc2c1c(-c1cccc(OCc3ccccc3)c1)cn2[C@H]1C[C@@H](CNC(=O)CN2CCCCC2)C1 [Example 57, cis-N-{3-[4-Amino-5-(3-benzyloxy-phenyl)-pyrrolo[2,3-d]pyrimidin-7-yl]-cyclobutylmethyl}-2-piperidin-1-yl-acetamide] | 0.018 µM
15 | NC(=O)[C@@H]1CCCN1C[C@H]1C[C@H](n2cc(-c3cccc(OCc4ccccc4)c3)c3c(N)ncnc32)C1 [Example 75, trans-(S)1-{3-[4-Amino-5-(3-benzyloxy-phenyl)-pyrrolo[2,3-d]pyrimidin-7-yl]-cyclobutylmethyl}-pyrrolidine-2-carboxylic acid amide] | 0.05 µM
16 | Nc1ncnc2c1c(-c1cccc(OCc3ccccc3)c1)cn2[C@H]1C[C@@H](CN2CCC(O)CC2)C1 [Example 77, cis-1-{3-[4-Amino-5-(3-benzyloxy-phenyl)-pyrrolo[2,3-d]pyrimidin-7-yl]-cyclobutylmethyl}-piperidin-4-ol] | 0.05 µM
17 | Nc1ncnc2c1c(-c1cccc(OCc3ccccc3)c1)cn2[C@H]1C[C@@H](CN2CCSCC2)C1 [Example 81, cis-5-(3-Benzyloxy-phenyl)-7-(3-thiomorpholin-4-ylmethyl-cyclobutyl)-7H-pyrrolo[2,3-d]pyrimidin-4-ylamine] | 0.08 µM
18 | NC(=O)[C@H]1CCCN1C[C@H]1C[C@@H](n2cc(-c3cccc(OCc4ccccc4)c3)c3c(N)ncnc32)C1 [Example 83, cis-(R)-1-{3-[4-Amino-5-(3-benzyloxy-phenyl)-pyrrolo[2,3-d]pyrimidin-7-yl]-cyclobutylmethyl}-pyrrolidine-2-carboxylic acid amide] | 0.052 µM
19 | CNC(=O)NC[C@H]1C[C@@H](n2cc(-c3cccc(OCc4ccccc4)c3)c3c(N)ncnc32)C1 [Example 88, cis-1-{3-[4-Amino-5-(3-benzyloxy-phenyl)-pyrrolo[2,3-d]pyrimidin-7-yl]-cyclobutylmethyl}-3-methyl-urea] | 0.057 µM
20 | Nc1ncnc2c1c(-c1cccc(OCc3ccccc3)c1)cn2[C@H]1C[C@H](CNC(=O)N2CCCCC2)C1 [Example 90, trans-Piperidine-1-carboxylic acid {3-[4-amino-5-(3-benzyloxy-phenyl)-pyrrolo[2,3-d]pyrimidin-7-yl]-cyclobutylmethyl}-amide] | 0.09 µM
21 | CCN(CC)CCOC(=O)NC[C@H]1C[C@H](n2cc(-c3cccc(OCc4ccccc4)c3)c3c(N)ncnc32)C1 [Example 95, trans-{3-[4-amino-5-(3-benzyloxy-phenyl)pyrrolo[2,3-d]pyrimidin-7-yl]-cyclobutylmethyl}-carbamic acid 2-diethylamino-ethyl ester] | 0.08 µM
22 | Nc1ncnc2c1c(-c1cccc(OCc3ccccc3)c1)cn2[C@H]1C[C@H](CNC(=O)OCCN2CCOCC2)C1 [Example 96, trans-{3-[4-Amino-5-(3-benzyloxy-phenyl)-pyrrolo[2,3-d]pyrimidin-7-yl]-cyclobutylmethyl}-carbamic acid 2-morpholin-4-yl-ethyl ester] | 0.05 µM
23 | CN(C)CCOC(=O)NC[C@H]1C[C@H](n2cc(-c3cccc(OCc4ccccc4)c3)c3c(N)ncnc32)C1 [Example 98, trans-{3-[4-Amino-5-(3-benzyloxy-phenyl)-pyrrolo[2,3-d]pyrimidin-7-yl]-cyclobutylmethyl}-carbamic acid 2-dimethylamino-ethyl ester] | 0.04 µM
24 | Cc1c(-c2cccc(OCc3ccccc3)c2)c2c(N)ncnc2n1[C@H]1C[C@H](CN2CCC(O)CC2)C1 [Example 109, trans-1-{3-[4-Amino-5-(3-benzyloxy-phenyl)-6-methyl-pyrrolo[2,3-d]pyrimidin-7-yl]-cyclobutylmethyl}-piperidin-4-ol] | 0.15 µM
25 | Cc1c(-c2cccc(OCc3ccccc3)c2)c2c(N)ncnc2n1[C@H]1C[C@H](CN2CCC2)C1 [Example 110, trans-7-(3-Azetidin-1-ylmethyl-cyclobutyl)-5-(3-benzyloxy-phenyl)-6-methyl-7-H-pyrrolo[2,3-d]pyrimidin-4-ylamine] | 0.14 µM
26 | Cc1c(-c2cccc(OCc3ccccc3)c2)c2c(N)ncnc2n1[C@H]1C[C@H](CN2CCC[C@@H]2CO)C1 [Example 112, trans-((R)-1-{3-[4-Amino-5-(3-benzyloxy-phenyl)-6-methyl-pyrrolo[2,3-d]pyrimidin-7-yl]-cyclobutylmethyl}-pyrrolidin-2-yl)-methanol] | 0.09 µM
27 | Cc1c(-c2cccc(OCc3ccccc3)c2)c2c(N)ncnc2n1[C@H]1C[C@@H](CN2CCN(C)CC2)C1 [Example 117, cis-5-(3-Benzyloxy-phenyl)-6-methyl-7-[3-(4-methyl-piperazin-1-ylmethyl)-cyclobutyl]-7H-pyrrolo[2,3-d]pyrimidin-4-ylamine] | 0.13 µM
